The results in this text go back to patent publication US20230093099A1, “COMPOUNDS AND METHODS OF TREATING CANCERS” (CULLGEN (SHANGHAI), INC., priority 2019, published 2023).

Structures are written as SMILES.

Broadly, the IC50 is the concentration that gives 50% inhibition.

The experiment has as its system RS4;11 cells. Briefly: Cell viability assay (CellTiter-Glo) in RS4;11 cells. The class given is cell-based. The settings on record: Homo sapiens, 72 h; RS4;11 cells; cell viability, 3 days, CellTiter-Glo; read-out: IC50. An outline of the steps: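 RS4;11 cells seeded at 5000 per well, exposed for 3 days to 8- or 12-point 3-fold serial dilutions. Viability read by CellTiter-Glo luminescence; IC50 fitted by nonlinear least-squares regression.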
(In general: In ATP-based viability assays light output follows the ATP content of the culture.)
Regarding `Cc1cnc(Nc2ccc(N3CCN(CC(=O)NCCCNc4cccc5c4C(=O)N(C4CCC(=O)NC4=O)C5=O)CC3)cc2)nc1Nc1cccc(S(=O)(=O)NC(C)(C)C)c1` (stereo not drawn) [JA-091, 2-(4-(4-((4-((3-(N-(tert-Butyl)sulfamoyl)phenyl)amino)-5-methylpyrimidin-2-yl)amino)phenyl)piperazin-1-yl)-N-(3-((2-(2,6-dioxopiperidin-3-yl)-1,3-dioxoisoindolin-4-yl)amino)propyl)acetamide], the IC50 is 2980 nM. Regarding `CS(=O)(=O)c1ccc(-c2cccc3nc(Nc4ccc(N5CCN(C(=O)CCOCCNc6cccc7c6C(=O)N(C6CCC(=O)NC6=O)C7=O)CC5)cc4)nn23)cc1` (stereo not drawn) [JA-079, 2-(2,6-Dioxo-piperidin-3-yl)-4-{2-[3-(4-{4-[5-(4-methanesulfonyl-phenyl)-[1,2,4]triazolo[1,5-a]pyridin-2-ylamino]-phenyl}-piperazin-1-yl)-3-oxo-propoxy]-ethylamino}-isoindole-1,3-dione], the IC50 was 479 nM. Under `O=C1CCC(N2C(=O)c3cccc(NCCOCCC(=O)N4CCC(n5cc(-c6cnc7cccc(-c8cc(F)c(CN9CCOCC9)c(F)c8)c7n6)cn5)CC4)c3C2=O)C(=O)N1` (stereo not drawn) [JA-045, 4-[2-[3-[4-[4-[8-[3,5-Difluoro-4-(morpholinomethyl)phenyl]quinoxalin-2-yl]pyrazol-1-yl]-1-piperidyl]-3-oxo-propoxy]ethylamino]-2-(2,6-dioxo-3-piperidyl)isoindoline-1,3-dione] stands 1260 nM. The same measure for `Cc1ncsc1-c1ccc(CNC(=O)[C@@H]2C[C@@H](O)CN2C(=O)[C@@H](NC(=O)COCCOCCOCC(=O)N2CCC(n3cc(-c4cnc5cccc(-c6cc(F)c(CN7CCOCC7)c(F)c6)c5n4)cn3)CC2)C(C)(C)C)cc1` [JA-053, (2S,4R)-1-[(2S)-2-[[2-[2-[2-[2-[4-[4-[8-[3,5-Difluoro-4-(morpholinomethyl)phenyl]quinoxalin-2-yl]pyrazol-1-yl]-1-piperidyl]-2-oxo-ethoxy]ethoxy]ethoxy]acetyl]amino]-3,3-dimethyl-butanoyl]-4-hydroxy-N-[[4-(4-methylthiazol-5-yl)phenyl]methyl]pyrrolidine-2-carboxamide]: greater than 10000 nM; for `CS(=O)(=O)c1ccc(-c2cccc3nc(Nc4ccc(N5CCN(C(=O)CCCCC#Cc6ccc7c(c6)C(=O)N(C6CCC(=O)NC6=O)C7)CC5)cc4)nn23)cc1` (stereo not drawn) [JA-262, 3-(6-(7-(4-(4-((5-(4-(Methylsulfonyl)phenyl)-[1,2,4]triazolo[1,5-a]pyridin-2-yl)amino)phenyl)piperazin-1-yl)-7-oxohept-1-yn-1-yl)-1-oxoisoindolin-2-yl)piperidine-2,6-dione]: greater than 10000 nM; for `Cc1ncsc1-c1ccc(CNC(=O)[C@@H]2C[C@@H](O)CN2C(=O)[C@@H](NC(=O)COCCOCC(=O)N2CCC(n3cc(-c4cnc5cccc(-c6cc(F)c(CN7CCOCC7)c(F)c6)c5n4)cn3)CC2)C(C)(C)C)cc1` [JA-054, (2S,4R)-1-[(2S)-2-[[2-[2-[2-[4-[4-[8-[3,5-Difluoro-4-(morpholinomethyl)phenyl]quinoxalin-2-yl]pyrazol-1-yl]-1-piperidyl]-2-oxo-ethoxy]ethoxy]acetyl]amino]-3,3-dimethyl-butanoyl]-4-hydroxy-N-[[4-(4-methylthiazol-5-yl)phenyl]methyl]pyrrolidine-2-carboxamide]: greater than 10000 nM.

As for `Cc1cnc(Nc2ccc(N3CCN(C(=O)CCC(=O)N[C@H](C(=O)N4C[C@H](O)C[C@H]4C(=O)NCc4ccc(-c5scnc5C)cc4)C(C)(C)C)CC3)cc2)nc1Nc1cccc(S(=O)(=O)NC(C)(C)C)c1` [JA-022, (2S,4R)-1-((S)-2-(4-(4-(4-((4-((3-(N-(tert-Butyl)sulfamoyl)phenyl)amino)-5-methylpyrimidin-2-yl)amino)phenyl)piperazin-1-yl)-4-oxobutanamido)-3,3-dimethylbutanoyl)-4-hydroxy-N-(4-(4-methylthiazol-5-yl)benzyl)pyrrolidine-2-carboxamide], the concentration for half-maximal inhibition (IC50) is greater than 10000 nM. The same measure for `CS(=O)(=O)c1ccc(-c2cccc3nc(Nc4ccc(N5CCN(CC(=O)NCCCCCCNc6ccc7c(c6)C(=O)N(C6CCC(=O)NC6=O)C7=O)CC5)cc4)nn23)cc1` (stereo not drawn) [JA-215, N-(6-((2-(2,6-dioxopiperidin-3-yl)-1,3-dioxoisoindolin-5-yl)amino)hexyl)-2-(4-(4-((5-(4-(methylsulfonyl)phenyl)-[1,2,4]triazolo[1,5-a]pyridin-2-yl)amino)phenyl)piperazin-1-yl)acetamide]: greater than 10000 nM.

As to `Cc1ncsc1-c1ccc(CNC(=O)[C@@H]2C[C@@H](O)CN2C(=O)[C@@H](NC(=O)COCCOCC(=O)N2CCN(c3ccc(Nc4nc5cccc(-c6ccc(S(C)(=O)=O)cc6)n5n4)cc3)CC2)C(C)(C)C)cc1` [JA-073, (2S,4R)-1-((S)-3,3-Dimethyl-2-(2-(2-(2-(4-(4-((5-(4-(methylsulfonyl)phenyl)-[1,2,4]triazolo[1,5-a]pyridin-2-yl)amino)phenyl)piperazin-1-yl)-2-oxoethoxy)ethoxy)acetamido)butanoyl)-4-hydroxy-N-(4-(4-methylthiazol-5-yl)benzyl)pyrrolidine-2-carboxamide], the IC50 amounted to 4590 nM. The same measure for `O=C1CCC(N2C(=O)c3cccc(NCCOCCOCCOCCOCCOCCC(=O)N4CCC(n5cc(-c6cnc7cccc(-c8cc(F)c(CN9CCOCC9)c(F)c8)c7n6)cn5)CC4)c3C2=O)C(=O)N1` (stereo not drawn) [JA-043, 4-[2-[2-[2-[2-[2-[3-[4-[4-[8-[3,5-Difluoro-4-(morpholinomethyl)phenyl]quinoxalin-2-yl]pyrazol-1-yl]-1-piperidyl]-3-oxo-propoxy]ethoxy]ethoxy]ethoxy]ethoxy]ethylamino]-2-(2,6-dioxo-3-piperidyl)isoindoline-1,3-dione]: 7540 nM.

As to `Cc1ncsc1-c1ccc(CNC(=O)[C@@H]2C[C@@H](O)CN2C(=O)[C@@H](NC(=O)COCCNC(=O)CN2CCC(n3cc(-c4cnc5cccc(-c6cc(F)c(CN7CCOCC7)c(F)c6)c5n4)cn3)CC2)C(C)(C)C)cc1` [JA-153, (2S,4R)-1-((S)-2-(2-(2-(2-(4-(4-(8-(3,5-Difluoro-4-(morpholinomethyl)phenyl)quinoxalin-2-yl)-1H-pyrazol-1-yl)piperidin-1-yl)acetamido)ethoxy)acetamido)-3,3-dimethylbutanoyl)-4-hydroxy-N-(4-(4-methylthiazol-5-yl)benzyl)pyrrolidine-2-carboxamide], the 50% inhibitory concentration (IC50) is greater than 10000 nM. Under `O=C(CN1CCC(n2cc(-c3cnc4cccc(-c5cc(F)c(CN6CCOCC6)c(F)c5)c4n3)cn2)CC1)NCCCCCCNc1cccc2c1C(=O)N(C1CCC(=O)NC1=O)C2=O` (stereo not drawn) [JA-147, 2-(4-(4-(8-(3,5-Difluoro-4-(morpholinomethyl)phenyl)quinoxalin-2-yl)-1H-pyrazol-1-yl)piperidin-1-yl)-N-(6-((2-(2,6-dioxopiperidin-3-yl)-1,3-dioxoisoindolin-4-yl)amino)hexyl)acetamide] stands greater than 10000 nM. The same measure for `CS(=O)(=O)c1ccc(-c2cccc3nc(Nc4ccc(N5CCN(CC(=O)NCCOCCOCCOCCOCCNc6ccc7c(c6)C(=O)N(C6CCC(=O)NC6=O)C7=O)CC5)cc4)nn23)cc1` (stereo not drawn) [JA-206, N-(14-((2-(2,6-Dioxopiperidin-3-yl)-1,3-dioxoisoindolin-5-yl)amino)-3,6,9,12-tetraoxatetradecyl)-2-(4-(4-((5-(4-(methylsulfonyl)phenyl)-[1,2,4]triazolo[1,5-a]pyridin-2-yl)amino)phenyl)piperazin-1-yl)acetamide]: greater than 10000 nM; for `O=C(CN1CCC(n2cc(-c3cnc4cccc(-c5cc(F)c(CN6CCOCC6)c(F)c5)c4n3)cn2)CC1)NCCCNc1cccc2c1C(=O)N(C1CCC(=O)NC1=O)C2=O` (stereo not drawn) [JA-154, 2-(4-(4-(8-(3,5-Difluoro-4-(morpholinomethyl)phenyl)quinoxalin-2-yl)-1H-pyrazol-1-yl)piperidin-1-yl)-N-(3-((2-(2,6-dioxopiperidin-3-yl)-1,3-dioxoisoindolin-4-yl)amino)propyl)acetamide]: 1410 nM. The same measure for `Cc1cnc(Nc2ccc(N3CCN(CC(=O)NCCOCCOCCOCCOCCOCCNc4ccc5c(c4)C(=O)N(C4CCC(=O)NC4=O)C5=O)CC3)cc2)nc1Nc1cccc(S(=O)(=O)NC(C)(C)C)c1` (stereo not drawn) [JA-241, 2-(4-(4-((4-((3-(N-(tert-butyl)sulfamoyl)phenyl)amino)-5-methylpyrimidin-2-yl)amino)phenyl)piperazin-1-yl)-N-(17-((2-(2,6-dioxopiperidin-3-yl)-1,3-dioxoisoindolin-5-yl)amino)-3,6,9,12,15-pentaoxaheptadecyl)acetamide]: 1040 nM; for `CS(=O)(=O)c1ccc(-c2cccc3nc(Nc4ccc(N5CCN(C(=O)CCOCCOCCOCCOCCNc6cccc7c6C(=O)N(C6CCC(=O)NC6=O)C7=O)CC5)cc4)nn23)cc1` (stereo not drawn) [JA-080, 2-(2,6-Dioxo-piperidin-3-yl)-4-{2-[2-(2-{2-[3-(4-{4-[5-(4-methanesulfonyl-phenyl)-[1,2,4]triazolo[1,5-a]pyridin-2-ylamino]-phenyl}-piperazin-1-yl)-3-oxo-propoxy]-ethoxy}-ethoxy)-ethoxy]-ethylamino}-isoindole-1,3-dione]: 573 nM; for `Cc1ncsc1-c1ccc(CNC(=O)[C@@H]2C[C@@H](O)CN2C(=O)[C@@H](NC(=O)CCCC(=O)N2CCN(c3ccc(Nc4nc5cccc(-c6ccc(S(C)(=O)=O)cc6)n5n4)cc3)CC2)C(C)(C)C)cc1` [JA-066, (2S,4R)-1-((S)-3,3-Dimethyl-2-(5-(4-(4-((5-(4-(methylsulfonyl)phenyl)-[1,2,4]triazolo[1,5-a]pyridin-2-yl)amino)phenyl)piperazin-1-yl)-5-oxopentanamido)butanoyl)-4-hydroxy-N-(4-(4-methylthiazol-5-yl)benzyl)pyrrolidine-2-carboxamide]: greater than 10000 nM. Take `Cc1ncsc1-c1ccc(CNC(=O)[C@@H]2C[C@@H](O)CN2C(=O)[C@@H](NC(=O)CCOCCOCCC(=O)N2CCN(c3ccc(Nc4nc5cccc(-c6ccc(S(C)(=O)=O)cc6)n5n4)cc3)CC2)C(C)(C)C)cc1` [JA-070, (2S,4R)-1-((S)-3,3-Dimethyl-2-(3-(2-(3-(4-(4-((5-(4-(methylsulfonyl)phenyl)-[1,2,4]triazolo[1,5-a]pyridin-2-yl)amino)phenyl)piperazin-1-yl)-3-oxopropoxy)ethoxy)propanamido)butanoyl)-4-hydroxy-N-(4-(4-methylthiazol-5-yl)benzyl)pyrrolidine-2-carboxamide]: the half-maximal inhibitory concentration (IC50) is 2750 nM.
